This is an account of results in PMC9914855, “UHPLC-MS Phenolic Fingerprinting, Aorta Endothelium Relaxation Effect, Antioxidant, and Enzyme Inhibition Activities of Azara dentata Ruiz & Pav Berries” (Foods, 2023).

In one series the target is lipase. The conditions noted are these: cited from earlier work.
The target of another series is T1, BChE (Homo sapiens, UniProt P06276).
T1 construct: purchased Merck, Darmstadt, Germany
Conditions: cited from earlier work.

For a further series, the target named is T2, AChE (Homo sapiens, UniProt P22303).
T2 construct: purchased Merck, Darmstadt, Germany
Conditions: cited from earlier work.

The next series concerns the target amylase. Conditions: cited from earlier work.
On the set-up of series [1]: method as in PMID 36552522. Conditions: read-out: GI50 (cytotoxic); cited from earlier work.
Another series deals with human erythrocytes. Kind of series: Lipid peroxidation in human erythrocytes. Format: cell-based. The conditions noted are these: at 100 µg/mL. On the procedure: The lipid peroxidation in human erythrocytes (LP) assay was performed as described in a previous study with some modifications. Human blood cells (red) were used. After washing, the cells were suspended in phosphate-buffered saline (hemoglobin density of 1 mM). The final cell suspension with different concentrations of the test compounds was incubated and dissolved in DMSO and PBS for 10 min at 37 °C. After incubation, the cells were added to tert-butylhydroperoxide (1 mM) for 15 min at 37 °C. After this, the lipid peroxidation was obtained via the TBARs’ formation. The evaluation was performed in quadruplicate, and the results are shown as the inhibition percentage (IP) of lipid peroxidation in human erythrocytes (IPLP) contrasted to the control of catechin at 100 µg/mL and reported as the average ± SD. Healthy volunteer donors gave their informed consent for inclusion before participating in the study. The protocol assay was conducted in accordance with the Declaration of Helsinki and is included in the approved project by CICIT-CA-UNSJ-Argentina (Project code 80020190100277SJ, N 0591-20-R-UNSJ), referred to as an ethical and environmental safeguard and to preserve the hygiene and safety conditions in the activities to be carried out in laboratories.

Another series has as its target tyrosinase (Agaricus bisporus, UniProt C7FF04). Further details: method as in PMID 36552522. The conditions noted are these: cited from earlier work.
The target in series [2] is acetylcholinesterase (AChE). Further details: method as in PMID 36552522. The conditions noted are these: cited from earlier work.
Series [3] has as its target butyrylcholinesterase (BChE). The arrangement: method as in PMID 36552522. The conditions noted are these: cited from earlier work.

T1 sequence (P06276 29-602, species assumed): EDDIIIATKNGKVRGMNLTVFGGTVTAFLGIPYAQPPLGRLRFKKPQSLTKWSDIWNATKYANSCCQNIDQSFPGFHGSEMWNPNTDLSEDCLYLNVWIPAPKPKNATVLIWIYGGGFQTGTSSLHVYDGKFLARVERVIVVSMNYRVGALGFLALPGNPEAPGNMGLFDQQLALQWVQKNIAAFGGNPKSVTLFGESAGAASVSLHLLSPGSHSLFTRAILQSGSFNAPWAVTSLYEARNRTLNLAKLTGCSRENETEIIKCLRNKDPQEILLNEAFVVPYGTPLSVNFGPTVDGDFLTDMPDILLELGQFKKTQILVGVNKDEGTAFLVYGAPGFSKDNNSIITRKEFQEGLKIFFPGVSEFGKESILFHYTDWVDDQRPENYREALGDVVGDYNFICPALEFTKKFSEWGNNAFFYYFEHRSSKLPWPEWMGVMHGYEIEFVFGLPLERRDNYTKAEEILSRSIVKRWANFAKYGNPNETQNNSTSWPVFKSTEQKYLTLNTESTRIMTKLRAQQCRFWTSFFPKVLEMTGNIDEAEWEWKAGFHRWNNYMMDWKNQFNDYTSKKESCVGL
Sequence of tyrosinase (C7FF04 1-392): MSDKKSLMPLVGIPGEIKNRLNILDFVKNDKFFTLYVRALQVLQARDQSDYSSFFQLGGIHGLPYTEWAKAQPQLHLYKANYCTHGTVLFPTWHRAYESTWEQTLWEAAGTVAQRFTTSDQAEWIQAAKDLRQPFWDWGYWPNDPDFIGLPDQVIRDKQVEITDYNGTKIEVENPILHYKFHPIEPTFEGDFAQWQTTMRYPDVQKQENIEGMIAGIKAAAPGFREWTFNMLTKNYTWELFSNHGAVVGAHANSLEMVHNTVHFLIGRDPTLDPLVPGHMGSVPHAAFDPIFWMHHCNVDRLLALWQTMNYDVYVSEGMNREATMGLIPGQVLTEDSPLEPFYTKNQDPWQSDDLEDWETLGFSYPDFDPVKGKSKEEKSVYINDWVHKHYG
T2 sequence (P22303 32-614): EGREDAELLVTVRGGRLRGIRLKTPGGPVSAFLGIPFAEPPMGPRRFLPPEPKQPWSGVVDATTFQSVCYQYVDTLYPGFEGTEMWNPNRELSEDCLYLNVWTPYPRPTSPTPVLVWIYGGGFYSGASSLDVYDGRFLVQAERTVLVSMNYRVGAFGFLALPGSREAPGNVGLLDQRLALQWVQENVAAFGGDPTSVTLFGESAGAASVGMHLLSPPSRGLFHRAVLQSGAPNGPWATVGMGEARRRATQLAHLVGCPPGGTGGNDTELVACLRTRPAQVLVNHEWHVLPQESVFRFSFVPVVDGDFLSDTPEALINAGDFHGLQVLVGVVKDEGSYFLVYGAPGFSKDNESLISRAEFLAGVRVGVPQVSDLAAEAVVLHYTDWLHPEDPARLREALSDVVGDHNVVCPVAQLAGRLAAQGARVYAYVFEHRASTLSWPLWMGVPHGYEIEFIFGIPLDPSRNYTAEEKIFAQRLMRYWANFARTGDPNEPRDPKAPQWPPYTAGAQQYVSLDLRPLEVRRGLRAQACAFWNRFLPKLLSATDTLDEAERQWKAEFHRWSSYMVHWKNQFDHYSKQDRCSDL

Take `O=C(/C=C/c1ccc(O)c(O)c1)O[C@@H]1C[C@](O)(C(=O)O)C[C@@H](O)[C@H]1O` [chlorogenic acid, Chlorogenic acid]: at lipase, the “lipase IC50” value is 647 µg/mL. The IC50 was 17.8 µM on BChE and 22.6 µM on AChE. The “amylase IC50” value on amylase was 498 ± 13 µg/mL.

Regarding `CC1=C(CC/C(C)=C/CO)[C@]2(C)CCCC(C)(C)C2CC1` (stereo partly drawn) [ent-labda-8,13-E-diene-15-ol], the GI50 in series [1] was 4.5 ± 0.1 µM.

Consider `O.Oc1cc(O)c2c(c1)O[C@H](c1ccc(O)c(O)c1)[C@@H](O)C2` [catechin], for which, in the series on human erythrocytes, the “IPLP (inhibition percentage of lipid peroxidation in human erythrocytes)” value stood at 70%.

As for “2-nor-1,2-secolycoserone [2-nor-1,2-secolycoserone coumarin]”, on tyrosinase, the “tyrosinase IC50” value is recorded as 103.43 ± 16.86 µg/mL. The AChE inhibition in series [2] was 1.21 ± 0.03 µg/mL. In addition, the “BChE IC50” value in [3] is given as 11.23 ± 0.02 µg/mL.

Turning to `N.N.[Cl][Pt][Cl]` [cisplatin, reference compound], the GI50 in series [1] is 4.9 ± 0.2 µM.

The term IC50 denotes the concentration needed to halve the response being measured. The GI50 is the concentration giving 50% growth inhibition.
